# Test results published in article PMC7993375, “Discovery of novel quinoline-based analogues of combretastatin A-4 as tubulin polymerisation inhibitors with apoptosis inducing activity and potent anticancer effect” (Journal of Enzyme Inhibition and Medicinal Chemistry, 2021).
# Like-named read-outs stand apart in the source and are kept apart here.
# Experiments:
# [1] = system: caspase-9; assay: Caspase-9 activation assay; assay type: cell-based, human
# Protocol: The level of the anti-apoptotic marker and apoptotic marker BAX were assessed using Bcl-2 Elisa kit and human Bax ELISA Kit purchased from Zymed laboratories, invitrogen and Cloud-Clone Crop. (Katy, TX, USA), respectively, following the manufacturer’s instructions. Briefly, Treated MCF-7 cell lysate with 250 nM of compound 12c were prepared, and equal amount of cell lysates were loaded and propped with specific antibodies. The samples were measured and analysed at 450 nm in ROBONEK P2000 ELISA reader. In Vitro Caspase-9 Activation Assay was performed using human active caspase-9 Invitrogen EIA kit according to the manufacturer’s instructions. Compound 12c at concentrations of 50 and 250 nM and CA-4 (50 nM) were prepared in dH2O up to a final volume of 50 µL/well followed by addition of 5 µL of active caspase-9. Following, the cells were mixed and 50 µL of the Master Mix was added to each well and allowed to react at 37 °C for 1 h. The fluorescence intensity of the test samples was recorded and analysed in a fluorescence plate reader at 400 nm excitation and 505 nm emissions. All experiments were conducted in triplicates.
# [2] = system: MCF-7 cells; assay: Annexin V/PI apoptotic assay; assay type: cell-based, human; conditions: for percentage of Annexin V-staining positive cells: 48 h, untreated 1%; for percentage of early and late apoptotic cells: 72 h, untreated 2%
# Protocol: Apoptotic cell death was detected by flow cytometry using Annexin V and propidium iodide (PI). […] Cells were then harvested and prepared for flow cytometric analysis. Cells were washed in 1X binding buffer (20X binding buffer: 0.1 M HEPES, pH 7.4; 1.4 M NaCl; 25 mM CaCl2 diluted in dH2O) and incubated in the dark for 30 min on ice in Annexin V-containing binding buffer [1:100]. Cells were then washed once in binding buffer and then re-suspended in PI-containing binding buffer [1:1000]. Samples were analysed immediately using the BD accuri flow cytometer and prism software for analysis the data. Four populations are produced during the assay Annexin V and PI negative (Q4, healthy cells), Annexin V positive and PI negative (Q3, early apoptosis), Annexin V and PI positive (Q2, late apoptosis) and Annexin V negative and PI positive (Q1, necrosis).
# [3] = system: HCT-116; assay: MTT cell viability assay, HCT-116 colorectal carcinoma cells; assay type: cell-based; conditions: Homo sapiens, 72 h
# Protocol: (§1) The four human tumour cell lines MCF-7, HCT-116, HL-60 and HeLa used in this study were obtained from the VACSERA (Giza, Egypt) cell culture unit that were originally acquired from ATCC (Manassas, VA, USA). All the human tumour cell lines were cultured in Dulbecco’s Modified Eagle’s Medium (DMEM) with 10% foetal bovine serum, 2 mM L-glutamine and 100 µg/mL penicillin/streptomycin. Cells were maintained at 37 °C in 5% CO2 in a humidified incubator. All cells were sub-cultured 3 times/week by trypsinisation using TrypLE Express (1X).
# (§2) The quinoline compounds were evaluated for antiproliferative effect using the MTT viability assay of four cancer cell lines (MCF-7, HCT-116, HL-60 and HeLa) and normal breast cells MCF-10A to calculate the relative IC50 values for each compound. Cells were seeded in triplicate in 96-well plates at a density of 10 × 10^3 cells/ml in a total volume of 200 µl per well. 0.1% of DMSO was used as a vehicle control. Following, the cells were treated with 2 µl test compound (from stock solutions in ethanol) to furnish the concentration range of study, 1 nM to 50 µM, and re-incubated for a further 72 h. The culture medium was then removed, and the cells washed with 100 µL phosphate buffered saline (PBS) and 50 µL MTT added, to reach a final concentration of 1 mg/mL. Cells were incubated for 2 h in darkness at 37 °C. Solubilisation was begun through the addition of […] DMSO, and the cells maintained at room temperature in darkness for 20 min to ensure thorough colour diffusion before reading the absorbance. Plates were incubated for 72 h at 37 °C + 5% CO2. The MTT (5 mg/mL in PBS) was added and incubated for another 4 h, and the optical density was detected with a microplate reader at 570 nm. Results were expressed as percentage viability relative to vehicle control (100%). Dose response curves were plotted and IC50 values (concentration of drug resulting in 50% reduction in cell survival) were obtained using the commercial software package Prism (GraphPad Software, Inc., La Jolla, CA, USA). All the experiments were repeated in at least three independent experiments.
# [4] = system: MCF-7 cells; assay: Cell cycle analysis (PI, flow cytometry); assay type: cell-based, human; conditions: for percentage of cells in G0/G1 phase: control 57.3%
# Protocol: MCF-7 cells were seeded at a density of 1 × 10^5 cells/well in 6-well plates and treated with CA-4 (50 nM) and compound 12c (50 and 250 nM) for 24, 48 and 72 h. The cells were collected by trypsinisation and centrifuged at 800×g for 15 min. Cells were washed twice with ice-cold PBS and fixed in ice-cold 70% ethanol overnight at −20 °C. Fixed cells were centrifuged at 800×g for 15 min and stained with 50 µg/mL of PI, containing 50 µg/mL of DNase-free RNase A, at 37 °C for 30 min. The DNA content of cells (10,000 cells/experimental group) was analysed by flow cytometer at 488 nm using a FACSCalibur flow cytometer (BD Biosciences, San Jose, CA) and all data were recorded and analysed using the CellQuest Software (Becton-Dickinson).
# [5] = system: MCF-7 cells; assay: Intracellular ROS production (H2-DCFDA); assay type: cell-based, human; conditions: 24 h, untreated 1.0%
# Protocol: Mitochondrial membrane potential (Δψmt) was measured by flow cytometry with DiOC2(3) staining and additional labelling with an annexin V conjugate. After treatment with compound 12c (50 and 250 nM) and CA-4 (50 nM), cells were stained with DiOC2(3) dye for 30 min in the incubator, then harvested and washed with PBS. DiOC2(3)-stained cells were resuspended with 1X annexin binding buffer, followed by addition of annexin V conjugate and incubated at 37 °C for 15 min. The data from the flow cytometry were analysed by Cell Quest software. Production of intracellular reactive oxygen species (ROS) was measured using 2,7–dichlorofluorescin diacetate (H2-DCFDA) dye. MCF-7 cells were seeded and treated either with vehicle (0.1% DMSO) or with compound 12c (50 and 250 nM) or CA-4 (50 nM) for 6, 12 and 24 h. H2O2 was used as a positive control. The amount of ROS generated was estimated after 2 h of selected compound treatment. The cells were collected by centrifugation and washed twice with PBS. Cells were then incubated with DCFDA dye (25 µM) in dark at 37 °C for 1 h. Fluorescence spectra (510 − 600 nm) were monitored using an excitation wavelength of 488 nm[53]^,[54].
# [6] = system: MCF-7; assay: MTT cell viability assay, MCF-7 breast adenocarcinoma cells; assay type: cell-based; conditions: Homo sapiens
# Protocol: as §1, §2
# [7] = system: MCF-10A; assay: MTT cell viability assay, normal epithelial breast MCF-10A cells; assay type: cell-based; conditions: Homo sapiens, 72 h
# Protocol: as §2, with “Dose response curves were plotted and IC50 values (concentration of drug resulting in 50% reduction in cell survival) were obtained using the commercial software package Prism (GraphPad Software, Inc., La Jolla, CA, USA). All the experiments were repeated in at least three independent experiments.” left out
# [8] = MCF7, 72 h, read-out: IC50 value, MCF-7
structure (smiles),measurement,setting,value
"COc1ccc(/C=C\c2cc(OC)c(OC)c(OC)c2)cc1O [CA-4, Combretastatin A-4]",increase in caspase-9 activation,"[1]; MCF-7, 50 nM",14 fold
same,percentage of Annexin V-staining positive cells,[2]; 50 nM,29%
same,IC50,[3],26 ± 1 nM
same,"apoptosis, proportion of cells in sub-G1 phase","[4]; 50 nM, 24 h",23.5%
same,percentage of cells in G2/M phase,"[4]; 50 nM, 24 h",40.3%
same,"apoptosis, proportion of cells in sub-G1 phase","[4]; 50 nM, 48 h",31.1%
same,percentage of cells in G2/M phase,"[4]; 50 nM, 48 h, untreated 9.2%",43.8%
same,"apoptosis, proportion of cells in sub-G1 phase","[4]; 50 nM, 72 h",37.4%
same,percentage of cells in G2/M phase,"[4]; 50 nM, 72 h",47.7%
same,levels of ROS in MCF-7 cells,[5]; 50 nM,18.3%
same,IC50,[6]; [8],19 ± 4 nM
same,IC50,[7],6100 nM
"COc1cc(C2=NC(=Cc3cc4ccc(C)cc4nc3OC)C(=O)O2)cc(OC)c1OC [Compound 12c, 4-[(2-Methoxy-7-methylquinolin-3-yl)methylene]-2–(3,4,5-trimethoxyphenyl) oxazol-5(4H)-one]",increase in caspase-9 activation,"[1]; MCF-7, 50 nM",about 8 fold
same,increase in caspase-9 activation,"[1]; MCF-7, 250 nM",~16 fold
same,percentage of Annexin V-staining positive cells,[2]; 250 nM,21%
same,percentage of Annexin V-staining positive cells,[2]; concentration printed as 0 nM,15%
same,percentage of early and late apoptotic cells,[2]; concentration printed as 1 µM,17.6%
same,percentage of early and late apoptotic cells,[2]; concentration printed as 5 µM,29.3%
same,IC50,[3],22 ± 1 nM
same,percentage of cells in G2/M phase,"[4]; 50 nM, 48 h, untreated 9.2%",28.4%
same,percentage of cells in G2/M phase,"[4]; 50 nM, 72 h",33.0%
same,percentage of cells in G0/G1 phase,"[4]; 50 nM, 72 h",40.3%
same,"apoptosis, proportion of cells in sub-G1 phase","[4]; 250 nM, 24 h, untreated 1.5%",16.2%
same,"apoptosis, proportion of cells in sub-G1 phase","[4]; 250 nM, 48 h, untreated 1.5%",23.4%
same,percentage of cells in G2/M phase,"[4]; 250 nM, 48 h, untreated 9.2%",38.3%
same,percentage of cells in G2/M phase,"[4]; 250 nM, 72 h",40.8%
same,percentage of cells in G0/G1 phase,"[4]; 250 nM, 72 h",29.8%
same,"apoptosis, proportion of cells in sub-G1 phase","[4]; 250 nM, 72 h, untreated 1.5%",32.7%
same,levels of ROS in MCF-7 cells,[5]; 50 nM,22.7%
same,levels of ROS in MCF-7 cells,[5]; 250 nM,26.6%
same,IC50,[6]; [8],10 ± 3 nM
same,IC50,"[6]; MCF7, read-out: IC50, MCF-7",19 nM
same,IC50,[7],> 50000 nM
